This is an account of results in patent publication US9662323B2, “Compounds having muscarinic receptor antagonist and beta2 adrenergic receptor agonist activity” (CHIESI FARMACEUTICI S.p.A., priority 2015, dated 2017).

One assay has as its target T1, Human β2 adrenoceptor (Homo sapiens, UniProt P07550).
T1 construct: purchased Perkin Elmer
Description: β2 Adrenoceptor Radioligand Binding Assay. The conditions noted are these: human β2 adrenoceptor membranes, 125-I Cyanopindolol; read-out: B2 binding affinity (Ki class). The protocol: β2 Adrenoceptor Radioligand Binding Assay
The assay was carried out in 96-well polypropylene plates in a volume of 200 ul. The assay buffer used was 25 mM HEPES, 0.5% BSA (w/v), 1 mM EDTA, 0.02% ascorbic acid (v/v), (pH 7.4). The final assay concentration of DMSO was 0.5% (v/v). The plates were sealed and incubated for 1 h at room temperature on an orbital shaker (slow speed). Membranes were harvested onto 96-well unifilter GF/C filter plates pre-treated with 0.5% polyethyleneimine (v/v), using a filter manifold, washed six times with 200 ul of wash buffer containing 10 mM HEPES and 500 mM NaCl. The plates were dried before addition of 50 μl of microscint-0, sealed then read in a Trilux Microbeta scintillation counter. IC50 values are determined from competition curves using a non-linear curve fitting program. Ki values were calculated from IC50 values by the Cheng and Prusoff equation.

The target in another assay is T2, Human M3 receptor (Homo sapiens, UniProt P20309).
T2 construct: purchased Perkin Elmer
Description: M3 Receptor Radioligand Binding Assay. The note with it: human M3 receptor membranes, [3H]-N-methyl scopolamine; read-out: M3 binding affinity (Ki class). As to the method: Biological Characterization M3 Receptor Radioligand Binding Assay
The assay was carried out in 96-well polypropylene plates in a volume of 250 ul. […] The final assay concentration of DMSO was 0.5% (v/v). The plates were sealed and incubated for 2 h at room temperature on an orbital shaker (slow speed). Membranes were harvested onto 96-well unifilter GF/C filter plates pre-treated with 0.5% polyethyleneimine (v/v), using a filter manifold, washed four times with 200 ul of assay buffer. The plates were dried before addition of 50 μl of microscint-0, sealed then read in a Trilux Microbeta scintillation counter.

T1 sequence (P07550 whole entry): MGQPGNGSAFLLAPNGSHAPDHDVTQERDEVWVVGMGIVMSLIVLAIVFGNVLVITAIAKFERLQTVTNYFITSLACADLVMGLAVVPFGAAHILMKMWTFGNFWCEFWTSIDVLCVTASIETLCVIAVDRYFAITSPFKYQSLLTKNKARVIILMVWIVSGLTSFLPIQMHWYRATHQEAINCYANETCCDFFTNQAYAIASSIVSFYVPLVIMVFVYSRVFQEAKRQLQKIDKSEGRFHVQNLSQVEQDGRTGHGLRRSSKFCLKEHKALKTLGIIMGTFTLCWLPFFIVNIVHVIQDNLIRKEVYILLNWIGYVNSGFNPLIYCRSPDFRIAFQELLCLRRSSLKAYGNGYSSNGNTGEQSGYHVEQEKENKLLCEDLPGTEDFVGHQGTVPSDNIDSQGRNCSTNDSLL
T2 sequence (P20309 whole entry): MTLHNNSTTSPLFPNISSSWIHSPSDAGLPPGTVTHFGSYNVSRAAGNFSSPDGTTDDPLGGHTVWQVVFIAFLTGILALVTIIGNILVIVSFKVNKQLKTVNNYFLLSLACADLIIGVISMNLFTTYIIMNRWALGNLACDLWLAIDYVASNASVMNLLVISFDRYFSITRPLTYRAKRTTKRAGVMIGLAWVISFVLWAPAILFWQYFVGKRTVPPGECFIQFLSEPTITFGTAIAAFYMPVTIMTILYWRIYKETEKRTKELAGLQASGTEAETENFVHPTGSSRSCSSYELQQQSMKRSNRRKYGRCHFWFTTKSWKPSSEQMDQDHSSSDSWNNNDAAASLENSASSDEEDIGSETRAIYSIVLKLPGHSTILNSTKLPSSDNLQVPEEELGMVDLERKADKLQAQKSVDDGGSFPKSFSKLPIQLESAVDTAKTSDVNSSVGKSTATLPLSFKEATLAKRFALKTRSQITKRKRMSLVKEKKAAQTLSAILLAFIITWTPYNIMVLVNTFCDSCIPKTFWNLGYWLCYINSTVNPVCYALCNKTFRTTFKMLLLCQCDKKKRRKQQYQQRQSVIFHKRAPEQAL

Broadly, the Ki is a dissociation constant, usually derived from enzyme kinetics or from competition with a known ligand. In the case of `O=C(c1ccc(OCCCCNC[C@H](O)c2ccc(O)c3[nH]c(=O)ccc23)cc1)N1CC(C(=O)O[C@H]2CN3CCC2CC3)(c2ccccc2)C1` [Compound 18A, (R)-Quinuclidin-3-yl 1-(4-(4-(((R)-2-hydroxy-2-(8-hydroxy-2-oxo-1,2-dihydroquinolin-5-yl)ethyl)amino)butoxy)benzoyl)-3-phenylazetidine-3-carboxylate], the Ki at Human β2 adrenoceptor is < 1 nM; at Human M3 receptor, 1 to 10 nM.

`O=C(NCCCCNC[C@H](O)c1ccc(O)c2[nH]c(=O)ccc12)c1ccc(C(=O)N2CCC(C(=O)O[C@H]3CN4CCC3CC4)(c3ccccc3)CC2)cc1` [Compound 19, (R)-Quinuclidin-3-yl 1-(4-((4-(((R)-2-hydroxy-2-(8-hydroxy-2-oxo-1,2-dihydroquinolin-5-yl)ethyl)amino)butyl)carbamoyl)benzoyl)-4-phenylpiperidine-4-carboxylate]: the values for the Ki on Human β2 adrenoceptor and on Human M3 receptor were < 1 nM and 1 to 10 nM, respectively.

For the compound `O=C(NCCCNC[C@H](O)c1ccc(O)c2[nH]c(=O)ccc12)c1ccc(COc2ccc(C(=O)N3CC(C(=O)O[C@H]4CN5CCC4CC5)(c4ccccc4)C3)cc2)cc1` [Compound 19A, (R)-Quinuclidin-3-yl 1-(4-((4-((3-(((R)-2-hydroxy-2-(8-hydroxy-2-oxo-1,2-dihydroquinolin-5-yl)ethyl)amino)propyl)carbamoyl)benzyl)oxy)benzoyl)-3-phenylazetidine-3-carboxylate], the Ki on Human β2 adrenoceptor and on Human M3 receptor was < 1 nM each time.

As for `O=C(c1ccc(CCNC[C@H](O)c2ccc(O)c3[nH]c(=O)ccc23)cc1)N1CCC(C(=O)O[C@H]2CN3CCC2CC3)(c2ccccc2)CC1` [Compound 20, (R)-Quinuclidin-3-yl 1-(4-(2-(((R)-2-hydroxy-2-(8-hydroxy-2-oxo-1,2-dihydroquinolin-5-yl)ethyl)amino)ethyl)benzoyl)-4-phenylpiperidine-4-carboxylate], the Ki at Human β2 adrenoceptor is < 1 nM; on Human M3 receptor it was > 10 nM.

For `COc1cc(CNC(=O)c2ccc(C(=O)N3CC(C(=O)O[C@H]4CN5CCC4CC5)(c4ccccc4)C3)cc2)ccc1CNC[C@H](O)c1ccc(O)c2[nH]c(=O)ccc12` [Compound 20A, (R)-Quinuclidin-3-yl 1-(4-((4-((((R)-2-hydroxy-2-(8-hydroxy-2-oxo-1,2-dihydroquinolin-5-yl)ethyl)amino)methyl)-3-methoxybenzyl)carbamoyl)benzoyl)-3-phenylazetidine-3-carboxylate], the Ki on Human β2 adrenoceptor and at Human M3 receptor was < 1 nM in each case.

Consider `O=C(NCCCCNC[C@H](O)c1ccc(O)c2[nH]c(=O)ccc12)c1ccc(C(=O)N2CCC(C(=O)O[C@H]3CN4CCC3CC4)(c3ccccc3)CC2)s1` [Compound 21, (R)-Quinuclidin-3-yl 1-(5-((4-(((R)-2-hydroxy-2-(8-hydroxy-2-oxo-1,2-dihydroquinolin-5-yl)ethyl)amino)butyl)carbamoyl)thiophene-2-carbonyl)-4-phenylpiperidine-4-carboxylate], for which the inhibitory constant (Ki) is < 1 nM at Human β2 adrenoceptor and 1 to 10 nM at Human M3 receptor.

Regarding `O=C(c1ccc(OCc2cccc(OCCCCNC[C@H](O)c3ccc(O)c4[nH]c(=O)ccc34)c2)cc1)N1CCC(C(=O)O[C@H]2CN3CCC2CC3)(c2ccccc2)CC1` [Compound 22, (R)-Quinuclidin-3-yl 1-(4-((3-(4-(((R)-2-hydroxy-2-(8-hydroxy-2-oxo-1,2-dihydroquinolin-5-yl)ethyl)amino)butoxy)benzyl)oxy)benzoyl)-4-phenylpiperidine-4-carboxylate], the Ki at Human β2 adrenoceptor is < 1 nM; on Human M3 receptor, 1 to 10 nM.

Consider `O=C(NCc1ccc(CNC[C@H](O)c2ccc(O)c3[nH]c(=O)ccc23)cc1)c1ccc(C(=O)N2CCC(C(=O)O[C@H]3CN4CCC3CC4)(c3ccccc3)CC2)cc1` [Compound 23, (R)-Quinuclidin-3-yl 1-(4-((4-((((R)-2-hydroxy-2-(8-hydroxy-2-oxo-1,2-dihydroquinolin-5-yl)ethyl)amino)methyl)benzyl)carbamoyl)benzoyl)-4-phenylpiperidine-4-carboxylate], for which the Ki at Human β2 adrenoceptor is 1 to 10 nM; at Human M3 receptor, < 1 nM.

Take `O=C(c1ccc(OCc2ccc(CNC[C@H](O)c3ccc(O)c4[nH]c(=O)ccc34)cc2)cc1)N1CCC(C(=O)O[C@H]2CN3CCC2CC3)(c2ccccc2)CC1` [Compound 24, (R)-Quinuclidin-3-yl 1-(4-((4-((((R)-2-hydroxy-2-(8-hydroxy-2-oxo-1,2-dihydroquinolin-5-yl)ethyl)amino)methyl)benzyl)oxy)benzoyl)-4-phenylpiperidine-4-carboxylate]: the Ki on Human β2 adrenoceptor and on Human M3 receptor was < 1 nM each time.

Consider `CCN(CCCNC[C@H](O)c1ccc(O)c2[nH]c(=O)ccc12)C(=O)c1ccc(C(=O)N2CCC(C(=O)O[C@H]3CN4CCC3CC4)(c3ccccc3)CC2)cc1` [Compound 25, (R)-Quinuclidin-3-yl 1-(4-(ethyl(3-(((R)-2-hydroxy-2-(8-hydroxy-2-oxo-1,2-dihydroquinolin-5-yl)ethyl)amino)propyl)carbamoyl)benzoyl)-4-phenylpiperidine-4-carboxylate], for which the Ki at Human β2 adrenoceptor and on Human M3 receptor was 1 to 10 nM each time.

As to `O=C(c1ccc(OCc2ccc(CCNC[C@H](O)c3ccc(O)c4[nH]c(=O)ccc34)cc2)cc1)N1CCC(C(=O)O[C@H]2CN3CCC2CC3)(c2ccccc2)CC1` [Compound 26, (R)-Quinuclidin-3-yl 1-(4-((4-(2-(((R)-2-hydroxy-2-(8-hydroxy-2-oxo-1,2-dihydroquinolin-5-yl)ethyl)amino)ethyl)benzyl)oxy)benzoyl)-4-phenylpiperidine-4-carboxylate], the inhibition constant Ki at Human β2 adrenoceptor and on Human M3 receptor was < 1 nM each time.

In the case of `CN(CCCNC[C@H](O)c1ccc(O)c2[nH]c(=O)ccc12)C(=O)c1ccc(C(=O)N2CCC(C(=O)O[C@H]3CN4CCC3CC4)(c3ccccc3)CC2)s1` [Compound 27, (R)-Quinuclidin-3-yl 1-(5-((3-(((R)-2-hydroxy-2-(8-hydroxy-2-oxo-1,2-dihydroquinolin-5-yl)ethyl)amino)propyl)(methyl)carbamoyl)thiophene-2-carbonyl)-4-phenylpiperidine-4-carboxylate], the inhibition constant (Ki) is < 1 nM on Human β2 adrenoceptor and 1 to 10 nM on Human M3 receptor.

Consider `O=C(c1ccc(C(=O)N(CCCNC[C@H](O)c2ccc(O)c3[nH]c(=O)ccc23)Cc2ccccc2)s1)N1CCC(C(=O)O[C@H]2CN3CCC2CC3)(c2ccccc2)CC1` [Compound 28, (R)-Quinuclidin-3-yl 1-(5-(benzyl(3-(((R)-2-hydroxy-2-(8-hydroxy-2-oxo-1,2-dihydroquinolin-5-yl)ethyl)amino)propyl)carbamoyl)thiophene-2-carbonyl)-4-phenylpiperidine-4-carboxylate], for which the Ki at Human β2 adrenoceptor was < 1 nM; on Human M3 receptor, 1 to 10 nM.

Turning to `CCN(CCCNC[C@H](O)c1ccc(O)c2[nH]c(=O)ccc12)C(=O)c1ccc(C(=O)N2CCC(C(=O)O[C@H]3CN4CCC3CC4)(c3ccccc3)CC2)s1` [Compound 29, (R)-Quinuclidin-3-yl 1-(5-(ethyl(3-(((R)-2-hydroxy-2-(8-hydroxy-2-oxo-1,2-dihydroquinolin-5-yl)ethyl)amino)propyl)carbamoyl)thiophene-2-carbonyl)-4-phenylpiperidine-4-carboxylate], the Ki at Human β2 adrenoceptor is < 1 nM; at Human M3 receptor, 1 to 10 nM.

As for `O=C(Cc1ccc(OCCCCNC[C@H](O)c2ccc(O)c3[nH]c(=O)ccc23)cc1)N1CCC(C(=O)O[C@H]2CN3CCC2CC3)(c2ccccc2)CC1` [Compound 30, (R)-Quinuclidin-3-yl 1-(2-(4-(4-(((R)-2-hydroxy-2-(8-hydroxy-2-oxo-1,2-dihydroquinolin-5-yl)ethyl)amino)butoxy)phenyl)acetyl)-4-phenylpiperidine-4-carboxylate], the inhibition constant (Ki) on Human β2 adrenoceptor is < 1 nM; at Human M3 receptor, 1 to 10 nM.

In the case of `O=C(NCCC(=O)N1CCC(C(=O)O[C@H]2CN3CCC2CC3)(c2ccccc2)CC1)c1ccc(CNC[C@H](O)c2ccc(O)c3[nH]c(=O)ccc23)cc1` [Compound 31, (R)-Quinuclidin-3-yl 1-(3-(4-((((R)-2-hydroxy-2-(8-hydroxy-2-oxo-1,2-dihydroquinolin-5-yl)ethyl)amino)methyl)benzamido)propanoyl)-4-phenylpiperidine-4-carboxylate], the Ki at Human β2 adrenoceptor was < 1 nM; at Human M3 receptor, 1 to 10 nM.

As to `O=C(CCc1ccc(OCCCCNC[C@H](O)c2ccc(O)c3[nH]c(=O)ccc23)cc1)N1CCC(C(=O)O[C@H]2CN3CCC2CC3)(c2ccccc2)CC1` [Compound 32, (R)-Quinuclidin-3-yl 1-(3-(4-(4-(((R)-2-hydroxy-2-(8-hydroxy-2-oxo-1,2-dihydroquinolin-5-yl)ethyl)amino)butoxy)phenyl)propanoyl)-4-phenylpiperidine-4-carboxylate], the inhibitory constant (Ki) on Human β2 adrenoceptor and at Human M3 receptor was < 1 nM throughout.
